Like-named read-outs stand apart in the source and are kept apart here.
Assays:
NCIH460 = experiment: Anti-cancer screen (MTT), NCIH460; format: cell-based; conditions: Homo sapiens, NCI-H460, 48 hours with compound, tested at 0.01-100 µM
Method in brief: (§1)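 Cells plated at 5000/well in DMEM with 10% FBS, then treated 48 h with compound at 0.01, 0.1, 1, 10 and 100 μM in triplicate. MTT for 3 h, formazan in DMSO, absorbance at 570 nm. GI50, TGI and LC50 from % growth relative to control and time-zero wells.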

HCT116 = experiment: Anti-cancer screen (MTT), HCT116; format: cell-based; conditions: Homo sapiens, HCT-116, 48 hours with compound, tested at 0.01-100 µM
Method in brief: as §1

MDAMB-231/U 251 = experiment: Anti-cancer screen (MTT), MDAMB-231/U 251; format: cell-based; conditions: for CC50: read-out: MDAMB-231/U 251 LC50
Method in brief: as §1

[1] = tested on: NCIH460, HCT116, MDAMB-231/U 251; experiment: Anti-cancer screen, mean GI50 over the cell lines; format: cell-based; conditions: in µM
Method in brief: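 HCT116, NCIH460 and U251 cells (5000/well) were seeded for 24 h, then exposed in triplicate to 0.01, 0.1, 1, 10 and 100 µM final compound for 48 h. Viability was read by MTT (3 h, absorbance 570 nm), and percent growth was calculated against untreated controls and a T0 plate read at compound addition.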

HDAC = HDAC inhibition; format: biochemical; conditions: for HDAC Inhibition 1 μM: compound at 1 μM; for HDAC Inhibition 10 μM: compound at 10 μM
[2] = 48 hours with compound, MTT, tested at 0.01-100 µM

| Structure (SMILES) | GI50 (NCIH460) [µM] | IC (TGI) (NCIH460) [µM] | LC50 (NCIH460) [µM] | GI50 (HCT116) [µM] | IC (TGI) (HCT116) [µM] | LC50 (concentration giving 50% net cell kill relative to T0) (HCT116) [µM] | CC50 (MDAMB-231/U 251; 48 h) [µM] | GI50 (MDAMB-231/U 251; [2]) [µM] | IC (TGI) (MDAMB-231/U 251; [2]) [µM] | Mean GI50 [1] | HDAC Inhibition 1 μM (HDAC) | HDAC Inhibition 10 μM (HDAC) | IC50 (HDAC) [µM] | CC50 (HCT116; read-out: HCT116 LC50) [µM] | CC50 (MDAMB-231/U 251; [2]) [µM] |
| --- | --- | --- | --- | --- | --- | --- | --- | --- | --- | --- | --- | --- | --- | --- | --- |
| COC(CNC(=O)c1ccc(CNC(=O)OCc2cccs2)cc1)OC [Example 53, 2-Thienylmethyl (4-{[(2,2-dimethoxyethyl)amino]carbonyl}benzyl)carbamate] | 0.02 | 1 | > 100 | 0.12 | 6.1 | > 100 | > 100 | 7.1 | > 100 | 2.4 | 4.3 | 1.6 |  |  |  |
| Nc1ccccc1NC(=O)Cc1csc(NC(=O)OCc2cccnc2)n1 [Example 18, Pyridin-3-ylmethyl(4-{2-[(2-aminophenyl)amino]-2-oxoethyl}-1,3-thiazol-2-yl)carbamate] | 100 | > 100 | > 100 | > 100 | > 100 | > 100 | > 100 | 12 | > 100 | >100 | 2.19 | 7.99 |  |  |  |
| O=C(NCc1ccc(C(=O)NO)cc1)OCc1nc2ccccc2[nH]1 [Example 33, 1H-Benzimidazol-2-ylmethyl{4-[(hydroxyamino)carbonyl]benzyl}carbamate] | 1 | 68 | > 100 | 4.5 | 20 | > 100 | 60 | 3 | 8 | 2.8 | 82.77 | 92.11 | 0.25 |  |  |
| O=C(NCc1ccc(C(=O)NO)cc1)OCC1COc2ccccc2O1 (stereo not drawn) [Example 32, 2,3-Dihydro-1,4-benzodioxin-2-ylmethyl {4-[(hydroxyamino)carbonyl]benzyl}carbamate] | 5 | 42 | 95 | 5 | 25 | > 100 | 80 | 11 | 45 | 7 | 78.12 | 92.67 |  |  |  |
| CC(=O)ONC(=O)c1ccc(CNC(=O)OCc2cccs2)cc1 [Example 82, 2-Thienylmethyl(4-{[(acetyloxy)amino]carbonyl}benzyl)carbamate] | 24 | 62 | > 100 | 7 | 41 | 78 | > 100 | 28 | 52 | 19.66 | 48.96 | 86.12 |  |  |  |
| O=C(Cc1csc(NC(=O)OCc2ccc(Br)s2)n1)NO [Example 6, (5-Bromo-2-thienyl)methyl{4-[2-(hydroxyamino)-2-oxoethyl]-1,3-thiazol-2-yl}carbamate] | 2 | 80 | > 100 | 65 | > 100 |  |  | 5 | 82 | 24 | 8.8 | 47.27 |  | > 100 | > 100 |
| O=C(Cc1csc(NC(=O)OCc2cccnc2)n1)NC1CCN(Cc2ccccc2)CC1 [Example 17, Pyridin-3-ylmethyl(4-{2-[(1-benzylpiperidin-4-yl)amino]-2-oxoethyl}-1,3-thiazol-2-yl)carbamate] | 80 | > 100 | > 100 | 82 | > 100 | > 100 | > 100 | 2.5 | 50 | 54.8 |  | 3.61 |  |  |  |

Reference: US20100152188A1, “Novel Heterocyclic Compounds” (priority 2005, published 2010)
